Measurements reported in US12060387B2, “Polypeptide-based shuttle agents for improving the transduction efficiency of polypeptide cargos to the cytosol of target eukaryotic cells, uses thereof, methods and kits relating to same” (priority 2015, dated 2024).
Read-outs that look alike come from different tables or passages of the source. Where no end group is shown, it is not given here.

Columns and labels:
HeLa cells [1] = assay: GFP-NLS transduction efficiency, flow cytometry (Pos cells %, relative fluorescence intensity FL1-A); type: cell-based, Human; settings: Protocol B, 1 minute; for Mean % cells with GFP signal (±St. Dev.; n = 3), FIG. 29I: shuttle 20 μM, GFP-NLS 5 μM
[2] = Cell toxicity / % cell viability by flow cytometry (cells in total events v. untreated); type: cell-based, Human; settings: human, HeLa cells, HeLa; for viability at 1 min, 20 µM / viability at 10 s, 50 µM / viability at 1 min, 10 µM / viability at 2 min, 10 µM / viability at 5 min, 10 µM: Protocol B; for viability at 1 min, 20 µM: 1 minute; for viability at 10 s, 50 µM: FIG. 29A, shuttle 50 μM, 10 seconds; for viability at 1 min, 10 µM / viability at 2 min, 10 µM / viability at 5 min, 10 µM: shuttle 10 μM; for viability at 1 min, 10 µM: incubation 1 min; for viability at 2 min, 10 µM: incubation 2 min; for viability at 5 min, 10 µM: incubation 5 min
Excerpt: (§2) The fluorescence of GFP was quantified using flow cytometry (Accuri C6, Becton, Dickinson and Company (BD)). Untreated cells were used to establish a baseline in order to quantify the increased fluorescence due to the internalization of the fluorescent protein in treated cells. The percentage of cells with a fluorescence signal above the maximum fluorescence of untreated cells, “mean %” or “Pos cells (%)”, is used to identify positive fluorescent cells. “Relative fluorescence intensity (FL1-A)” corresponds to the mean of all fluorescence intensities from each cell with a fluorescent signal after fluorescent protein delivery with the shuttle agent. Also, the events scanned by flow cytometry corresponding to cells (size and granularity) were analyzed. The cellular toxicity (% cell viability) was monitored comparing the percentage of cells in the total events scanned of treated cells comparatively to untreated cells.

HeLa cells [3] = assay: as above; type: cell-based, Human; settings: for effect of the variation of the shuttle on cell viability (in words): GFP-NLS 5 μM with 20 μM shuttle variant
Excerpt: as §2

[4] = as above; type: cell-based, human; settings: human, THP-1 cells, THP-1, Protocol C, shuttle 1 μM, GFP-NLS 5 μM, read-out: Cell viability (%) (±St. Dev.; n = 3)
THP-1 cells [5] = assay: Total RNA levels (ng/μL) as a marker for cell viability; type: cell-based, human
Procedure: (§1) Control and treated cells are transferred to separate sterile 1.5-mL tubes and centrifuged for 5 minutes at 300 g. The cell pellets are resuspended in appropriate buffer to lyse the cells. RNAase-free 70% ethanol is then added followed by mixing by pipetting. The lysates are transferred to an RNeasy™ Mini spin column and centrifuged 30 seconds at 13000 RPM. After several washes with appropriate buffers and centrifugation steps, the eluates are collected in sterile 1.5-mL tubes on ice, and the RNA quantity in each tube is then quantified with a spectrophotometer. For DNase treatment, 2 μg of RNA is diluted in 15 μL of RNase-free water. 1.75 μL of 10× DNase buffer and 0.75 μL of DNase is then added, followed by incubation at 37° C. for 15 minutes. For reverse transcriptase treatment, 0.88 μL of EDTA ([…]) is added, followed by incubation at 75° C. for 5 minutes. In a PCR tube, 0.5 μg of DNase-treated RNA is mixed with 4 μL of iScript™ Reverse transcription Supermix (5×) and […] of nuclease-free water. The mix is incubated in a PCR machine with the following program: 5 min at 25° C., 30 min at 42° C. and 5 min at 85° C. Newly synthesized cDNA is transferred in sterile 1.5-mL tubes and diluted in 2 μL of nuclease-free water. 18 μL per well of a qPCR machine (CFX-96™) mix is then added in a PCR plate for analysis.
Briefly, THP-1 cells were plated at 30 000 cells/well one day before transduction. HOXB4-WT recombinant protein (0.3, 0.9, or 1.5 μM; Example 14.1) was co-incubated with different concentrations of His-CM18-PTD4 ([…], 0.8 or 1 μM) and then exposed to THP-1 cells for 2.5 hours in the presence of serum. The cells were subjected to real time-PCR analysis as described in Example 14.2 to measure the mRNA levels of a target gene as a marker for HOXB4 activity, which was then normalized to the target gene mRNA levels detected in the negative control cells (no treatment), to obtain a “Fold over control” value. Total RNA levels (ng/μL) were also measured as a marker for cell viability.

THP-1 cells [6] = assay: HOXB4-WT transduction, real-time PCR of target gene mRNA (Fold over control); type: cell-based, human
Procedure: as §1
Briefly, THP-1 cells were plated at 30 000 cells/well one day before transduction. […] The cells were subjected to real time-PCR analysis as described in Example 14.2 to measure the mRNA levels of a target gene as a marker for HOXB4 activity, which was then normalized to the target gene mRNA levels detected in the negative control cells (no treatment), to obtain a “Fold over control” value. Total RNA levels (ng/μL) were also measured as a marker for cell viability.
Briefly, THP-1 cells were plated at 30 000 cells/well one day before the first time course experiment. […] The cells were subjected to real time-PCR analysis as described in Example 14.2 to measure mRNA levels of a target gene as a marker for HOXB4 activity, which was then normalized to the target gene mRNA levels detected in the negative control cells (no treatment), to obtain a “Fold over control” value. Total RNA levels (ng/μL) were also measured as a marker for cell viability.
Briefly, THP-1 cells were plated at 30 000 cells/well one day before the first time course experiment. […] The cells were subjected to real time-PCR analysis as described in Example 14.2 to measure mRNA levels of a target gene as a marker for HOXB4 activity, which was then normalized to target gene mRNA levels detected in the negative control cells (no treatment), to obtain a “Fold over control” value. Total RNA levels (ng/μL) were also measured as a marker for cell viability. […]

[7] = Cell viability (%) (±St. Dev.; n = 3), FIG. 29I, shuttle 20 μM, GFP-NLS 5 μM, read-out: Cell viability (%) (±St. Dev.; n = 3), FIG. 29I
[8] = Cell viability (%) (±St. Dev.; n = 3), GFP-NLS 5 μM, read-out: Cell viability (%) (±St. Dev.; n = 3)
[9] = HeLa, Protocol B, shuttle 50 μM, GFP-NLS 5 μM, 10 seconds
[10] = GFP-NLS 5 μM, read-out: Cell viability (%) (±St. Dev.; n = 3), FIG. 29G
[11] = GFP-NLS 5 μM, read-out: Cell viability (%) (±St. Dev.; n = 3)
[12] = GFP-NLS 5 μM, read-out: Cell viability (%) (±St. Dev.; n = 3), FIG. 29B

HHHHHHKWKLFKKIGAVLKVLTTGYARAAARQARACCCCCC (cysteines drawn unpaired) [His-CM18-PTD4-6Cys]
Mean % cells with GFP signal (±St. Dev.; n = 3), FIG. 29I (HeLa cells [1]): 41.3 ± 4.28%
viability at 1 min, 20 µM [2, 7]: 62 ± 5.76%

HHHHHHKWKLFKKIGAVLKVLTTGGWTLNSAGYLLKINLKALAALAKKIL [His-CM18-Transportan (TPT)]
viability at 10 s, 50 µM [2, 8]: 41.3 ± 3.3%
Cell viability (%) (±St. Dev.; n = 3), FIG. 29E (HeLa cells [3]; [9]): 41.3 ± 3.29%

HHHHHHKWKLFKKIGAVLKVLTTGYGRKKRRQRRR [His-CM18-TAT]
viability at 1 h, 1 µM ([2]; Cell viability (%) (±St. Dev.; n = 3), FIG. 21B, GFP-NLS 5 μM, shuttle 1 μM, 1 hour, read-out: Cell viability (%) (±St. Dev.; n = 3), FIG. 21B): 95 ± 3.55%
viability at 1 h, 3 µM ([2]; Cell viability (%) (±St. Dev.; n = 3), FIG. 21B, GFP-NLS 5 μM, shuttle 3 μM, 1 hour, read-out: Cell viability (%) (±St. Dev.; n = 3), FIG. 21B): 91 ± 5.18%
viability at 1 h, 5 µM ([2]; Cell viability (%) (±St. Dev.; n = 3), FIG. 21B, GFP-NLS 5 μM, shuttle 5 μM, 1 hour, read-out: Cell viability (%) (±St. Dev.; n = 3), FIG. 21B): 86 ± 4.59%
viability at 10 s, 50 µM [2, 8]: 35.2 ± 5.7%
Cell viability (%) (±St. Dev.; n = 3), FIG. 29E (HeLa cells [3]; [9]): 35.2 ± 5.7%

YARAAARQARAWEAKLAKALAKALAKHLAKALAKALKACEA [PTD4-KALA]
viability at 1 min, 10 µM [2, 10]: 96.2 ± 3%
viability at 2 min, 10 µM [2, 10]: 75.3 ± 3.8%
viability at 5 min, 10 µM [2, 10]: 82.4 ± 4.7%
viability at 10 s, 50 µM [2, 11]: 91.4 ± 3.67%
Cell viability (%) (±St. Dev.; n = 3), FIG. 29F (HeLa cells [3]): 91.4 ± 3.67%

KWKLFKKIGAVLKVLTTGGGSGGGSYARAAARQARA [CM18-L2-PTD4]
viability at 1 min, 20 µM [2, 7]: 64 ± 1.3%
effect of the variation of the shuttle on cell viability (in words) (HeLa cells [3]; HeLa, 1 minute, Protocol B): increased cell viability

KWKLFKKIGAVLKVLTTGGGSGGGSGGGSGYARAAARQARA [CM18-L3-PTD4]
effect of the variation of the shuttle on transduction efficiency (in words) (HeLa cells [1]; GFP-NLS 5 μM with 20 μM shuttle variant): did not result in a dramatic loss of transduction efficiency
Mean % cells with GFP signal (±St. Dev.; n = 3), FIG. 29I (HeLa cells [1]): 39.0 ± 2.7%
effect of the variation of the shuttle on cell viability (in words) (HeLa cells [3]; HeLa, 1 minute, Protocol B): increased cell viability

YGRKKRRQRRRCWEAKLAKALAKALAKHLAKALAKALKACEA (cysteines drawn unpaired) [TAT-KALA]
viability at 1 min, 10 µM [2, 12]: 93.5 ± 2.7%
viability at 2 min, 10 µM [2, 12]: 92.1 ± 3.1%
viability at 5 min, 10 µM [2, 12]: 86 ± 4.4%
viability at 10 s, 50 µM [2, 11]: 95.6 ± 4.3%
Cell viability (%) (±St. Dev.; n = 3), FIG. 29F (HeLa cells [3]; [9]): 95.6 ± 4.3%
viability at 15 s, 1 µM ([4]; incubation time 15 sec): 84.6 ± 2.7%
viability at 0.5 min, 1 µM ([4]; incubation time 30 sec): 70.3 ± 3.2%
viability at 1 min, 1 µM ([4]; incubation time 60 sec): 82.7 ± 1.4%
viability at 2 min, 1 µM ([4]; incubation time 120 sec): 46.3 ± 4.9%

HHHHHHKWKLFKKIGAVLKVLTTGYARAAARQARA [His-CM18-PTD4 alone]
Total RNA in ng/μL (mean ± St. Dev) (THP-1 cells [5]; Table 14.1, shuttle 1 μM, HOXB4-WT 0 μM, 2.5 hours with serum): 252 ± 10.7 ng/µL
Total RNA in ng/μL (mean ± St. Dev) (THP-1 cells [5]; Table 14.2, shuttle 0.8 μM, HOXB4-WT 0 μM, exposure time 2.5 h, serum): 184 ± 6.0 ng/µL
Total RNA in ng/μL (mean ± St. Dev) (THP-1 cells [5]; Table 14.3, shuttle 0 μM, HOXB4-WT 0.3 μM, exposure time 2.5 h, serum): 260 ± 7.1 ng/µL
Total RNA in ng/μL (mean ± St. Dev) (THP-1 cells [5]; Table 14.4, shuttle 0 μM, HOXB4-WT 1.5 μM, exposure time 2.5 h, serum): 303.9 ± 7.6 ng/µL

MHHHHHHKWKLFKKIGAVLKVLTTGYARAAARQARAC [Met-His-CM18-PTD4-Cys]
Mean % cells with GFP signal (±St. Dev.; n = 3), FIG. 29I (HeLa cells [1]): 45.6 ± 3.88%
viability at 1 min, 20 µM [2, 7]: 54.9 ± 3.45%

KWKLFKKIGAVLKVLTTGYARAAARQARA [CM18-PTD4]
viability at 1 min, 20 µM ([2]; cell viability, GFP-NLS 5 μM with 20 μM shuttle, Table 10.3e, read-out: cell viability): 33.9%
Cell viability (%) (±St. Dev.; n = 3), FIG. 29I (HeLa cells [3]; HeLa, Protocol B, shuttle 20 μM, GFP-NLS 5 μM, 1 minute): 33.9 ± 3.7%

HOXB4-WT alone
Fold over control (mean ± St. Dev) (THP-1 cells [6]; Table 14.1, shuttle 0 μM, HOXB4-WT 1.5 μM, 2.5 hours with serum): 4.3 ± 0.1
Fold over control (mean ± St. Dev) (THP-1 cells [6]; Table 14.2, shuttle 0 μM, HOXB4-WT 1.5 μM, exposure time 2.5 h, serum): 3.4 ± 0.3
Fold over control (mean ± St. Dev) (THP-1 cells [6]; Table 14.3, shuttle 0.8 μM, HOXB4-WT 0 μM, exposure time 2.5 h, serum): 1 ± 0.14
Fold over control (mean ± St. Dev) (THP-1 cells [6]; Table 14.4, shuttle 0.8 μM, HOXB4-WT 0 μM, exposure time 2.5 h, serum): 1 ± 0.11
